Results on four compounds are retold here after US11364211B2, “Methods for selecting phosphatase selective and non-selective phosphatase inhibitors” (MEDICAL RESEARCH COUNCIL, priority 2015, dated 2022).

The target in one test is T1, PPP1R15B-PP1 complex (Homo sapiens, UniProt Q5SWA1).
T1 construct: 340-698 of PPP1R15B were His-tagged and cloned into pMAL-c5x; made in house; host or cells: R15B fragment: E. coli BL21-Gold; BAP-PP1γ: Sf9 insect cells (baculovirus)
Briefly: SPR steady-state binding to R15B-PP1c holophosphatase on streptavidin chip. Particulars: for Kd: SPR, steady-state affinity. How it is done:
(§1) The streptavidin coated surface was activated by 1 min injection with a solution of 50 mM NaOH and 1 M NaCl. Biotin-PP1 was diluted in the running buffer (50 mM Tris pH 7.5, 100 mM NaCl, 0.1 mM EGTA, 1 mM MnCl2, 0.05% Tween 20) and injected at approximately 300 nM concentration directly to streptavidin coated surface for 100 sec or to reach immobilization level of biotin-PP1 corresponding to ˜7000 RU. A blank immobilization was performed for one of the SA sensor chip surface to use as a reference.
(§2) With minor deviations, the same procedure and conditions were used in all binding experiments. Small molecules were stored as 50 mM stock solutions in 100% DMSO. Prior to determining binding constants, serial dilutions of either 12 or 8 concentrations of the compounds were prepared in the running buffer in a 96-well plate. […] Then, without regenerating the surface, the compound dilution series was injected onto the surface of the chip Sensorgrams were analyzed using the Biacore T200 evaluation software and the binding constants determined based on a steady-state model. Kinetic experiments are carried out using different concentrations of the compound and their respective equilibrium binding levels determined.
(§3) Surface Plasmon Resonance (SPR) was used to measure the binding affinity of compounds to the PPP1R15A/B-PP1 phosphatase complex. Biotin acceptor peptide (BAP) was fused to the N-terminus of PP1γ, which enables the biotinylation of the BAP-tagged protein in Sf9 insect cells. After purification the BAP-PP1γ protein was captured on a streptavidin sensor chip (SA-chip, GE healthcare) to a response level of ˜5.000 RU. Using controlled biotinylation enables orientated and uniform immobilization on the sensor chip surface. The PP1γ was then used to capture PPP1R15A/B and form a holophosphatase complex on the surface of the streptavidin chip. This complex can then be used to test binding of compounds. 10 μM PPP1R15A/B protein concentration was used to form the holophosphatase complex during a 80 s injection. […] After the concentration series (8 or 12 concentrations) is completed the surface is regenerated with 3 M NaCl and we can capture R15A/B again to form a fresh holophosphatase complex to measure a binding of another compound concentration series. Analysing the level of equilibrium binding as a function of concentration gives interaction affinities or steady-state binding affinity (KD).
(§4) The streptavidin coated surface was activated by 1 minute injection with a solution of 50 mM NaOH and 1 M NaCl three times at a flow rate of 10 μl/min. bio-GBZ or bio-PP1c was diluted in the running buffer (50 mM Tris pH 7.5, 100 mM NaCl, 0.1 mM EGTA, 0.05% Tween 20, 0.1% DMSO) and injected at approximately 300 nM concentration at a flow rate of 10 μl/min directly to streptavidin coated surface to reach immobilization level of bio-GBZ or bio-PP1c corresponding to ˜200 and 6000 RU, respectively. A blank immobilization was performed for one of the SA sensor chip surface to use as a reference.
With minor deviations, the same procedure and conditions were used in all binding experiments. Small molecules were stored as 50 mM stock solutions in 100% DMSO. Prior to determining binding constants, serial dilutions of either 12 or 8 concentrations of the compounds were prepared in the running buffer in a 96-well plate. […] This was followed by 1 minute stabilization period, to wash off any unspecific binding. Then, without regenerating the surface, the compound dilution series was injected onto the surface of the chip at a flow rate of 30 μl/min for 1 minute, followed by 2 minutes dissociation time. After each dilution series the surface was regenerated using 3 M NaCl for 90 seconds. […] In order to be able to correct for small variations in DMSO concentration between samples, eight solvent samples ranging from 0.06 to 8% DMSO were injected every 50th cycle. The flow cell temperature was 10° C.

A further test has as its target T2, PPP1R15A-PP1 complex (Homo sapiens, UniProt O75807).
T2 construct: the cDNAs encoding amino acids 325-636 of PPP1R15A; made in house; host or cells: R15A fragment: E. coli BL21-Gold; BAP-PP1γ: Sf9 insect cells (baculovirus)
Briefly: SPR steady-state binding to R15A-PP1c holophosphatase on streptavidin chip. Particulars: steady-state affinity. How it is done:
as §1, §2, §3, §4
(§5) With minor deviations, the same procedure and conditions were used in all binding experiments. Small molecules were stored as 50 mM stock solutions in 100% DMSO. Prior to determining binding constants, serial dilutions of either 12 or 8 concentrations of the compounds were prepared in the running buffer in a 96-well plate. […] This was followed by 1 minute stabilization period, to wash off any unspecific binding. […]

Test [1] addresses T3, PP1c (Homo sapiens, UniProt P36873). Kind of test: SPR binding to PP1c alone immobilized on chip. The following applies: PP1c alone, read-out: affinity (KD) for PP1. How it is done: as §4
as §5, with “binding. Then, without regenerating the surface, the compound dilution series was injected onto the surface of the chip at a flow rate of 30 μl/min for 1 minute, followed by 2 minutes dissociation time.” for “binding.”
Kinetic experiments are carried out using different concentrations of the compound and their respective equilibrium binding levels determined.

Test [2] concerns the target T3, PP1c. Kind of test: PP1c catalytic activity assay (EnzChek). In kind it is biochemical. The following applies: purified PP1c 30 nM, 30 minutes at 4° C. Here is the method: Residual activity of PP1c was then measured using the EnzChek Phosphatase Assay Kit (Thermo Fisher Scientific) according to the supplier's instructions.

T2 sequence (O75807 325-636): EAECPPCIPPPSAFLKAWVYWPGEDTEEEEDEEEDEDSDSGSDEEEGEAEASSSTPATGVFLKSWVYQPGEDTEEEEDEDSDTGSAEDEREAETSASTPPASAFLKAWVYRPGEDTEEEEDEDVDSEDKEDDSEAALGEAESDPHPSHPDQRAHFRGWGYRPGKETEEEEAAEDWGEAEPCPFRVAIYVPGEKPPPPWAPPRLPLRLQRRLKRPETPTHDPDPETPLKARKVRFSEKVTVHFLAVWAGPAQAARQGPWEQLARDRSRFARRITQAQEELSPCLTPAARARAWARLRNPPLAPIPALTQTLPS
T2 sequence (P36873 whole entry partner, the tested form may be a part): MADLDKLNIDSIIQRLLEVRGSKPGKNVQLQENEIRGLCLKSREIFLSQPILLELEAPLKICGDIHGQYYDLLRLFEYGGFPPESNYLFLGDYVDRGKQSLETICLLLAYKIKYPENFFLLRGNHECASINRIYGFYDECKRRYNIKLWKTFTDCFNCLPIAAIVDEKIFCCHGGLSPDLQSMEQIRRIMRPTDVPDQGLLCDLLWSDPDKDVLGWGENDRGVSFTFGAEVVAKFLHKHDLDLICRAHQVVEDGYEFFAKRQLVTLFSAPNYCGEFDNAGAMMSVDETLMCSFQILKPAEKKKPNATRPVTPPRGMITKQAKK
T1 sequence (Q5SWA1 340-698): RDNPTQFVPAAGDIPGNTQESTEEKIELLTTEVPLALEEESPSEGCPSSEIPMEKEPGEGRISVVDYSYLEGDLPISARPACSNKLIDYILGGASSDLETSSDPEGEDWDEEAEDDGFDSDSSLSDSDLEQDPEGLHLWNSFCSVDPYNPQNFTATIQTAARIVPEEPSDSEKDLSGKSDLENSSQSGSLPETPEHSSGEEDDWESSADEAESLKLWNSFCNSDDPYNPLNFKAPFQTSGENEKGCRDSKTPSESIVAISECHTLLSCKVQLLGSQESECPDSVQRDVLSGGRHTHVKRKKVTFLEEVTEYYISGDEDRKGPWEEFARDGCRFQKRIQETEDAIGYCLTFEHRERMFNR
T1 sequence (P36873 whole entry partner, the tested form may be a part): as the sequence (P36873 whole entry partner, the tested form may be a part) above
T3 sequence (P36873 whole entry): as the sequence (P36873 whole entry partner, the tested form may be a part) above

`N=C(N)N/N=C/c1ccc(F)cc1Cl` [Example 2, (E)-2-(2-chloro-4-fluorobenzylidene)hydrazine-1-carboximidamide]: the Kd on PPP1R15B-PP1 complex came out at 0.143 µM; on PPP1R15A-PP1 complex, 5 µM. For the same compound, the “difference in affinities between PPP1R15A-PP1 and PPP1R15B-PP1” value at PPP1R15B-PP1 complex (from SPR KD values) was “greater than 30 fold”.
`O=C(/C=C/c1ccccc1)NC(NC(=S)Nc1cccc2cccnc12)C(Cl)(Cl)Cl` (centres unmarked) [Salubrinal]: the Kd at PPP1R15B-PP1 complex, at PPP1R15A-PP1 complex and on PP1c [1] was over 20 µM each time.
`COC[C@@H]([C@H](O)[C@H](O)C(=O)NCC[C@H](C)c1nc(/C=C/C[C@@H]2O[C@]3(C[C@@H](O)[C@@H]2C)O[C@H]([C@H](C[C@H](O)[C@H](C)[C@H](O)[C@H](C)/C=C(C)/C(C)=C/C=C/C(C)=C\C#N)OC)[C@H](OP(=O)(O)O)C3(C)C)co1)N(C)C` [calyculin A, reference compound]: the “inhibition of PP1c in enzymatic assay” value at PP1c [2] is recorded as “a catalytic inhibitor of PP1”.
As to `N=C(N)N/N=C/c1cc(Cl)c(Cl)c(Cl)c1` [Example 3, (E)-2-(3,4,5-trichlorobenzylidene)hydrazine-1-carboximidamide], the Kd on PPP1R15A-PP1 complex stood at 3.93 µM.
